Literature values in patent publication US20090099557A1, “Methods and compositions for optimizing the outcomes of refractive laser surgery of the cornea” (priority 2006, published 2009).

How the values were obtained:
epithelial cells [1] = conditions: 18% ethanol for 25 seconds; single cell layers of epithelial cells, in vitro
epithelial cells [2] = conditions: ethanol-assisted epithelial separation; Invest Opthalmol Vis Sci 43: 2593-2602 (2002); J Cataract Refract Surg 28: 1841-46 (2002)

**Q.** Which “toxic effect of the alcohol on epithelial cells” value (epithelial cells [1]) does the source give for `CCO` [ethanol] here?
**A.** The value was “toxic effect”.

**Q.** What about the “toxicity to epithelial cells” value (epithelial cells [2]) of the same compound?
**A.** The value was “toxic to epithelial cells in both a dose- and time-dependent manner”.
